Test results from patent publication US20240109865A1, “INDAZOLE COMPOUNDS AS KINASE INHIBITORS” (TYRA BIOSCIENCES, INC., priority 2020, published 2024).

Columns and labels:
FGFR1-BCR Ba/F3 cells = FGFR1-BCR Ba/F3 cells (Homo sapiens, UniProt P11362); experiment: Ba/F3 cell viability assay (CellTiter-Glo 2.0), FGFR1-BCR Ba/F3; format: cell-based; conditions: read-out: Ba/F3 Cells FGFR1 (IC50 nM), 48 hours, Cell Titer Glo 2.0
From the text: (§1) Experimental Purpose: Recombinant kinase fusions are transduced into parental Ba/F3, which becomes dependent upon this constitutive kinase activity for IL3-independent survival. Inhibition of kinase activity leads to cell death, which is monitored using CellTiter-Glo® 2.0 (Promega) which measures intracellular ATP concentration that in turn serves as a marker for viability. FGFR1-BCR Ba/F3 and FGFR3-BAIAP2L1 Ba/F3 were obtained from Advanced Cellular Dynamics (Seattle, WA)
(§2) Cell Viability Assay Procedure: Cell Titer-Glo® 2.0 Luminescent cell viability assay reagent was purchased from Promega (Madison, WI). FGFR1-BCR Ba/F3 and FGFR3-BAIAP2L1 Ba/F3 cells were cultured in RPMI1640 media supplemented with 10% fetal bovine serum. Cultures were maintained at 37° C. in a humidified atmosphere of 5% C02 and 95% air.
(§3) Cells were plated in 96-well clear bottom/white plates (Corning #3903) at 10,000 cells/well in 100 μl of media, incubated overnight. The next day, test compound DMSO stock solutions were made at 10 mM and 2 μM final concentration. Compounds were then added to cells in a 9-dose, 10-fold dilution series starting at 30 μM with an HP 300e Digital Dispenser (each dose was applied in triplicate). DMSO was backfilled to each well up to 301 nL total volume of test compound+DMSO, and a total of 301 nL DMSO was added to a control/no test compound well in triplicate. The cells in cell culture plates were incubated with the compounds at 37° C. and 5% C02 for 48 hours. Then 50 μl of Cell Titer Glo 2.0 reagent was added to each well of the cell culture plates. The contents were covered from light and mixed on an orbital shaker at room temperature for 10 min. Luminescence was recorded by a Synergy H1 Microplate Reader (Biotek, Winooski, VT). Cells were assessed as a percentage of DMSO only treated control cells. Curves were plotted and IC50 values were calculated using the GraphPad Prism 8 program based on a sigmoidal dose-response equation (4 parameter).

FGFR3 (V555M) = FGFR3 (V555M) (Homo sapiens (Human), UniProt P22607, V555M); experiment: Kinase assay, binding constants (Kd), kinase-tagged T7 phage, qPCR; conditions: V555M mutant
Method in brief: (§4)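 Competition binding: kinase-tagged T7 phage lysates mixed with immobilized biotinylated ligand on streptavidin beads plus compound (11-point 3-fold dilution series, 0.9% DMSO final). Bound kinase eluted with free ligand and quantified by qPCR. Kd from Hill equation fit, slope fixed at −1.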

FGFR4 = FGFR4 (Homo sapiens (Human), UniProt P22455); experiment: as above
Method in brief: as §4

FGFR3 = FGFR3 (Homo sapiens (Human), UniProt P22607); experiment: as above
Method in brief: as §4

FGFR2 = FGFR2 (Homo sapiens (Human), UniProt P21802); experiment: as above
Method in brief: as §4

FGFR1 = FGFR1 (Homo sapiens (Human), UniProt P11362); experiment: as above
Method in brief: as §4

[1] = molecular target: FGFR3-BAIAP2L1 Ba/F3 cells (Homo sapiens, UniProt P22607); experiment: Ba/F3 cell viability assay (CellTiter-Glo 2.0), FGFR3-BAIAP2L1 Ba/F3; format: cell-based; conditions: for Ba/F3 FGFR1/FGFR3 Selectivity: FGFR3 > FGFR1 selectivity ratio in Ba/F3 FGFR fusion cell based assays; for IC50: read-out: Ba/F3 Cells FGFR3 (IC50 nM), FGFR3-BAIAP2L1 Ba/F3 cells, 48 hours, Cell Titer Glo 2.0
From the text: as §1, §2, §3

FGFR2, sequence (P21802 22-821): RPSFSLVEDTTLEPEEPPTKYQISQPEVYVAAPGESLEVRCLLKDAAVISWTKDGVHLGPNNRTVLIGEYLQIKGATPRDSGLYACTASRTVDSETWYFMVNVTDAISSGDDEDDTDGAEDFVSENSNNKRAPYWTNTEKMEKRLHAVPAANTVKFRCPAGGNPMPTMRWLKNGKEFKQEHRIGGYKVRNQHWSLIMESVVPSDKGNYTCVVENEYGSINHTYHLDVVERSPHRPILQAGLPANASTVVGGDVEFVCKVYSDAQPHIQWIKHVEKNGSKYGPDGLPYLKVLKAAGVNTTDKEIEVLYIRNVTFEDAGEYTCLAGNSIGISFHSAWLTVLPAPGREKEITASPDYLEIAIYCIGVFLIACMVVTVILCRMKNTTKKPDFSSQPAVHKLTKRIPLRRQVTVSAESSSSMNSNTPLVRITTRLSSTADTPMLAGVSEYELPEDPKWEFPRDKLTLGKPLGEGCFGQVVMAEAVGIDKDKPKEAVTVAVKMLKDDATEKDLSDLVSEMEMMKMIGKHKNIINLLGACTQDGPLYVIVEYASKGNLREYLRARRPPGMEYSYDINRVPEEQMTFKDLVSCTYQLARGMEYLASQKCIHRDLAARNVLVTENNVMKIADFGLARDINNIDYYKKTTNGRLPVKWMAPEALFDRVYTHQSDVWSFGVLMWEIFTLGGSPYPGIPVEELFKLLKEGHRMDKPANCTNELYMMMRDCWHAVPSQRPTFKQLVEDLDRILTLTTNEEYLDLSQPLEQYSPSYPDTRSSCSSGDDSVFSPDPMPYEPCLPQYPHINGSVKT
FGFR1, sequence (P11362 22-822): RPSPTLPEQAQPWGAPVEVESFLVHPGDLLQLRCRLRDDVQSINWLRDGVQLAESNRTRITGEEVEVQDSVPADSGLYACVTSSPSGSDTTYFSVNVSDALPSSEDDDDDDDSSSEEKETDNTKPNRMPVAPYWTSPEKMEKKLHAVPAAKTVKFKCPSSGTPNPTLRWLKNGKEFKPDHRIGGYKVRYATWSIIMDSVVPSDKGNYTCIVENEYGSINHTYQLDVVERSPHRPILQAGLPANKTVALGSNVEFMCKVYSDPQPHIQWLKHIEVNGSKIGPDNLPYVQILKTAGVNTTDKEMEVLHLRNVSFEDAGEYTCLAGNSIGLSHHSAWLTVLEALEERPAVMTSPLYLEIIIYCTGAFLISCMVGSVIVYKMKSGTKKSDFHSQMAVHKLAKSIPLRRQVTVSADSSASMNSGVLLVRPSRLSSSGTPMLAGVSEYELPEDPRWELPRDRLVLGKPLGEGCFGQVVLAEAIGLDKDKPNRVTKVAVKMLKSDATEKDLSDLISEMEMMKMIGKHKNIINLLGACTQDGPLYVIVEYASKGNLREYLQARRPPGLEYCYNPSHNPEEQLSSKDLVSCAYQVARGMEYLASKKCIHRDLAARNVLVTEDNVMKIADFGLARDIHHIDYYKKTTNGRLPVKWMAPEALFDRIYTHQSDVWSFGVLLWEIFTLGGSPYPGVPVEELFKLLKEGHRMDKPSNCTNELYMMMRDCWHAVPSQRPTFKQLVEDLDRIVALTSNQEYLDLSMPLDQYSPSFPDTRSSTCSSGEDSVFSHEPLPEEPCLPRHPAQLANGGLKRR
FGFR1-BCR Ba/F3 cells, sequence (P11362 22-822 limits assumed, change not shown): as the sequence (P11362 22-822) above
FGFR3 (V555M), sequence (P22607 23-806 V555M): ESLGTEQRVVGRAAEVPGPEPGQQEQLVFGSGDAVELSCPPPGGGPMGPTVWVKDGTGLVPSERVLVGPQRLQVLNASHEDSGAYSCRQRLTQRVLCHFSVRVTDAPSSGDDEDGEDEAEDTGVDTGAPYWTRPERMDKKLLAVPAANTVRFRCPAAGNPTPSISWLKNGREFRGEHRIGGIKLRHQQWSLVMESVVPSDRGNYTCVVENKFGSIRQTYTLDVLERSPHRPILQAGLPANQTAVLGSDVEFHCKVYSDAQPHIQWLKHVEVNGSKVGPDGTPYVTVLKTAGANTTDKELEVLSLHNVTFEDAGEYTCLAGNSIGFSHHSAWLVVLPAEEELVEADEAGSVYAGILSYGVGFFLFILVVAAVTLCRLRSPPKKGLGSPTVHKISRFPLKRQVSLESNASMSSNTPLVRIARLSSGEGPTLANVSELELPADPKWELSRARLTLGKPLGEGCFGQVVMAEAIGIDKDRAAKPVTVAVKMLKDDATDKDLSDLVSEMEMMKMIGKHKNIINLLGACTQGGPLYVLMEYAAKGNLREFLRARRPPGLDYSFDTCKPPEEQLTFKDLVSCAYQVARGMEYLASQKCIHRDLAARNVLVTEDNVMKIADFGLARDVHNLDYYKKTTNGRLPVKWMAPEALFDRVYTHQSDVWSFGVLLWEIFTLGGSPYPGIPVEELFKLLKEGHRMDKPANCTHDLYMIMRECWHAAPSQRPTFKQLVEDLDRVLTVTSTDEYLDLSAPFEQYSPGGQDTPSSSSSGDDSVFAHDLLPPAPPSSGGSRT
FGFR4, sequence (P22455 22-802): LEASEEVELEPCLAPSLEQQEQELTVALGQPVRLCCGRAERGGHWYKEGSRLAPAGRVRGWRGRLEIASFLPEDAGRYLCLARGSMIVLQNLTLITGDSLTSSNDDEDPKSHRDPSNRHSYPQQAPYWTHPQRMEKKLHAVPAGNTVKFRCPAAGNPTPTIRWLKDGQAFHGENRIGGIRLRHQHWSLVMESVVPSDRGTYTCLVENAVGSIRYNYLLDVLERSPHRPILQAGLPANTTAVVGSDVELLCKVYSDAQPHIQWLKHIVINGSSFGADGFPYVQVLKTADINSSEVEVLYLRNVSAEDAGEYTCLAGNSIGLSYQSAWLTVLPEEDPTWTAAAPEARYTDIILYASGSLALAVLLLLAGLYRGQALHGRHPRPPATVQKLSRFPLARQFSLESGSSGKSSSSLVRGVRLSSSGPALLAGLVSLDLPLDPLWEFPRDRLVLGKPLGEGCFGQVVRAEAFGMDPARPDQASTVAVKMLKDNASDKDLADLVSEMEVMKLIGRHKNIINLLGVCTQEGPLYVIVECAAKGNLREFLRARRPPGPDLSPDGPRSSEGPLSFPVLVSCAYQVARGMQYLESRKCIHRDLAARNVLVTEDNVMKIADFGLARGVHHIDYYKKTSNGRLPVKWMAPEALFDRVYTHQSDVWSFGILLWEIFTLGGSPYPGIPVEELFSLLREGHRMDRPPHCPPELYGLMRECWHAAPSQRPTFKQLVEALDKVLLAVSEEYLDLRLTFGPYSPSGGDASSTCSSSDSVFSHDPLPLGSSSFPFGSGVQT
FGFR3-BAIAP2L1 Ba/F3 cells, sequence (P22607 23-806 limits assumed, change not shown): as the sequence (P22607 23-806 V555M) above, with M533V counted along it
FGFR3, sequence (P22607 23-806): as the sequence (P22607 23-806 V555M) above, with M533V counted along it

| Structure (SMILES) | IC50 (FGFR1-BCR Ba/F3 cells) | Kd (FGFR3 (V555M)) | Kd (FGFR4) | Kd (FGFR3) | Kd (FGFR2) | Kd (FGFR1) | Ba/F3 FGFR1/FGFR3 Selectivity [1] | IC50 [1] |
| --- | --- | --- | --- | --- | --- | --- | --- | --- |
| C[C@@H](Oc1ccc2[nH]nc(-c3cnc(N4CCC5(CC4)C(=O)NCCN5C)nc3)c2c1)c1c(Cl)cncc1Cl [Example 58, 9-[5-[5-[(1R)-1-(3,5-dichloro-4-pyridyl)ethoxy]-1H-indazol-3-yl]pyrimidin-2-yl]-1-methyl-1,4,9-triazaspiro[5.5]undecan-5-one] | 100 to 300 nM | 1 to 20 nM | 1 to 20 nM | 1 to 20 nM | 20 to 100 nM | 20 to 100 nM | 11 | 20 to 100 nM |
| C[C@@H](Oc1ccc2[nH]nc(-c3ccc(N4CC5(C4)CN(S(C)(=O)=O)C5)nc3)c2c1)c1c(Cl)cccc1Cl [Example 170, 5-[(1R)-1-(2,6-dichlorophenyl)ethoxy]-3-[6-(2-methylsulfonyl-2,6-diazaspiro[3.3]heptan-6-yl)-3-pyridyl]-1H-indazole] | > 300 nM | 1 to 20 nM | 100 to 300 nM | 1 to 20 nM | 20 to 100 nM | 100 to 300 nM | 14 | 20 to 100 nM |
| C[C@@H](Oc1ccc2[nH]nc(-c3ccc(N4CC5(CCNCC5)OC4=O)nc3)c2c1)c1c(Cl)cncc1Cl [Example 74, 3-[5-[5-[(1R)-1-(3,5-dichloro-4-pyridyl)ethoxy]-1H-indazol-3-yl]-2-pyridyl]-1-oxa-3,8-diazaspiro[4.5]decan-2-one] | 100 to 300 nM | 1 to 20 nM | 1 to 20 nM | 1 to 20 nM | 1 to 20 nM | 1 to 20 nM | 6 | 20 to 100 nM |
| COC(=O)N1CCCC2(C1)CN(c1ncc(-c3n[nH]c4ccc(O[C@H](C)c5c(Cl)cncc5Cl)cc34)cn1)C2 [Example 138, methyl 2-[5-[5-[(1R)-1-(3,5-dichloro-4-pyridyl)ethoxy]-1H-indazol-3-yl]pyrimidin-2-yl]-2,8-diazaspiro[3.5]nonane-8-carboxylate] | > 300 nM | 1 to 20 nM | 1 to 20 nM | 1 to 20 nM | 20 to 100 nM | 20 to 100 nM | 8 | 20 to 100 nM |
| CCOC(=O)N1CCCC2(C1)CN(c1ncc(-c3n[nH]c4ccc(O[C@H](C)c5c(Cl)cncc5Cl)cc34)cn1)C2 [Example 131, ethyl 2-[5-[5-[(1R)-1-(3,5-dichloro-4-pyridyl)ethoxy]-1H-indazol-3-yl]pyrimidin-2-yl]-2,8-diazaspiro[3.5]nonane-8-carboxylate] | > 300 nM | 1 to 20 nM | 1 to 20 nM | 1 to 20 nM | 100 to 300 nM | 100 to 300 nM | 5 | 100 to 300 nM |
| Cc1cnnc(C)c1[C@@H](C)Oc1ccc2[nH]nc(-c3ccc(N4CC5(CCS(=O)(=O)C5)C4)nc3)c2c1 [Example 144, 2-[5-[5-[(1R)-1-(3,5-dimethylpyridazin-4-yl)ethoxy]-1H-indazol-3-yl]-2-pyridyl]-6λ^6-thia-2-azaspiro[3.4]octane 6,6-dioxide] | > 300 nM | 1 to 20 nM | 1 to 20 nM | 1 to 20 nM | 1 to 20 nM | 1 to 20 nM | 33 | 20 to 100 nM |
| C[C@@H](Oc1ccc2[nH]nc(-c3cnc(N4CC5(CCN(S(C)(=O)=O)CC5)C4)nc3)c2c1)c1c(Cl)cncc1Cl [Example 137, 5-[(1R)-1-(3,5-dichloro-4-pyridyl)ethoxy]-3-[2-(7-methylsulfonyl-2,7-diazaspiro[3.5]nonan-2-yl)pyrimidin-5-yl]-1H-indazole] | 100 to 300 nM | 1 to 20 nM | 1 to 20 nM | 1 to 20 nM | 20 to 100 nM | 20 to 100 nM | 11 | 1 to 20 nM |
| C[C@@H](Oc1ccc2[nH]nc(-c3ccc(N4CCC5(CCC(=O)N5C)CC4)nc3)c2c1)c1c(Cl)cncc1Cl [Example 40, 8-[5-[5-[(1R)-1-(3,5-dichloro-4-pyridyl)ethoxy]-1H-indazol-3-yl]-2-pyridyl]-1-methyl-1,8-diazaspiro[4.5]decan-2-one] | 20 to 100 nM | 1 to 20 nM | 1 to 20 nM | 1 to 20 nM | 1 to 20 nM | 1 to 20 nM | 30 | 1 to 20 nM |
| C[C@@H](Oc1ccc2[nH]nc(-c3ccc(N4CCN(C)CC4=O)nc3)c2c1)c1c(Cl)cncc1Cl [Example 38, 1-[5-[5-[(1R)-1-(3,5-dichloro-4-pyridyl)ethoxy]-1H-indazol-3-yl]-2-pyridyl]-4-methyl-piperazin-2-one] | 100 to 300 nM | 1 to 20 nM | 1 to 20 nM | 1 to 20 nM | 20 to 100 nM | 20 to 100 nM | 21 | 1 to 20 nM |
| Cc1cnnc(C)c1[C@H](C)Oc1ccc2[nH]nc(-c3ccc(N4CC5(CCS(=O)(=O)C5)C4)nc3)c2c1 [Example 145, 2-[5-[5-[(1S)-1-(3,5-dimethylpyridazin-4-yl)ethoxy]-1H-indazol-3-yl]-2-pyridyl]-6λ^6-thia-2-azaspiro[3.4]octane 6,6-dioxide] | > 300 nM | 1 to 20 nM | 100 to 300 nM | 20 to 100 nM | 20 to 100 nM | > 300 nM | 2 | > 300 nM |
| C[C@@H](Oc1ccc2[nH]nc(-c3cnc(N4CCCN(S(C)(=O)=O)CC4)nc3)c2c1)c1c(Cl)cncc1Cl [Example 63, 5-[(1R)-1-(3,5-Dichloro-4-pyridyl)ethoxy]-3-[2-(4-methylsulfonyl-1,4-diazepan-1-yl)pyrimidin-5-yl]-1H-indazole] | > 300 nM | 1 to 20 nM | 1 to 20 nM | 1 to 20 nM | 20 to 100 nM | 20 to 100 nM | 16 | 20 to 100 nM |
| COC(=O)N1CCCC2(C1)CN(c1ccc(-c3n[nH]c4ccc(O[C@H](C)c5c(Cl)cncc5Cl)cc34)cn1)C2 [Example 165, methyl 2-[5-[5-[(1R)-1-(3,5-dichloro-4-pyridyl)ethoxy]-1H-indazol-3-yl]-2-pyridyl]-2,8-diazaspiro[3.5]nonane-8-carboxylate] | 100 to 300 nM | 1 to 20 nM | 1 to 20 nM | 1 to 20 nM | 1 to 20 nM | 20 to 100 nM | 16 | 1 to 20 nM |
| C[C@@H](Oc1ccc2[nH]nc(-c3cnn(C4CCN(C5CCC5)CC4)c3)c2c1)c1c(Cl)cncc1Cl [Example 90, 3-[1-(1-cyclobutyl-4-piperidyl)pyrazol-4-yl]-5-[(1R)-1-(3,5-dichloro-4-pyridyl)ethoxy]-1H-indazole] | 20 to 100 nM | 1 to 20 nM | 20 to 100 nM | 1 to 20 nM | 1 to 20 nM | 1 to 20 nM | 10 | 1 to 20 nM |
| C[C@@H](Oc1ccc2[nH]nc(-c3cnn(C4CCN(CCO)CC4)c3)c2c1)c1c(Cl)cncc1Cl [Example 79, 2-[4-[4-[5-[(1R)-1-(3,5-dichloro-4-pyridyl)ethoxy]-1H-indazol-3-yl]pyrazol-1-yl]-1-piperidyl]ethanol] | 20 to 100 nM | 1 to 20 nM | 1 to 20 nM | 1 to 20 nM | 1 to 20 nM | 1 to 20 nM | 14 | 1 to 20 nM |
| CCOC(=O)N1CCC2(CC1)CN(c1ccc(-c3n[nH]c4ccc(O[C@H](C)c5c(Cl)cncc5Cl)cc34)cn1)C2 [Example 130, ethyl 2-[5-[5-[(1R)-1-(3,5-dichloro-4-pyridyl)ethoxy]-1H-indazol-3-yl]-2-pyridyl]-2,7-diazaspiro[3.5]nonane-7-carboxylate] | > 300 nM | 1 to 20 nM | 1 to 20 nM | 1 to 20 nM | 20 to 100 nM | 20 to 100 nM | 12 | 20 to 100 nM |
